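Following 48 hours of exposure in 96-well plates, responses at five concentrations were used to interpolate endpoints linearly. TGI is the concentration that stops growth completely.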 Peptide text beside a SMILES is read from it. * marks the point of attachment. OSu = O=C1CCC(=O)N1O*; OBn = c1ccc(CO*)cc1; Bn = c1ccc(C*)cc1
Key:
Assay in all cases: growth of human tumour cells (NCI), 48 h
[1] = tested on: EKVX NSCLC
[2] = tested on: SK-MEL-5 melanoma
[3] = tested on: CAKI-1 renal
[4] = tested on: K-562 leukemia
[5] = tested on: HOP-92 NSCLC
[6] = tested on: NCI-H23 lung
[7] = tested on: NCI-H226 lung
[8] = tested on: RPMI-8226 leukemia
[9] = tested on: IGROV1 ovarian
[10] = tested on: CCRF-CEM leukemia

SMILES	TGI [1] [µM]	TGI [2] [µM]	TGI [3] [µM]	TGI [4] [µM]	TGI [5] [µM]	TGI [6] [µM]	TGI [7] [µM]	TGI [8] [µM]	TGI [9] [µM]	TGI [10] [µM]
O=C(NNCc1ccccc1O)c1ccccc1O	> 100	25.8	> 100	> 100	> 100	> 100	> 100	> 100	> 100	–
COc1cc(C2C3=C(N=C4SC(C(C)=O)=C(C)N42)c2ccccc2CC3)cc(OC)c1OC (centres undefined)	> 100	> 100	–	85.2	> 100	> 100	> 100	93.4	> 100	> 100
c1ccc2nn(C3CCCCO3)nc2c1 (centres undefined)	> 100	> 100	> 100	> 100	–	> 100	> 100	–	> 100	> 100
Cc1ccc(Nc2ccc(Nc3ccc(C)cc3S(=O)(=O)O)c3c2C(=O)c2ccccc2C3=O)c(S(=O)(=O)O)c1	> 100	> 100	> 100	> 100	–	–	> 100	> 100	> 100	> 100
COC(=O)C(N)CCCC(N)C(=O)NC(C)C(=O)NC(CCC(=O)NCCCNc1ccc([N+](=O)[O-])c2[nH]c3ccccc3c(=O)c12)C(N)=O (centres undefined)	20.2	23.9	19.8	22.6	26.1	17.9	27.9	14	–	14.3
CC1(CO)C(=O)OC12CCCCC2 (centres undefined)	> 100	–	> 100	> 100	> 100	> 100	> 100	> 100	> 100	> 100
Cn1c(=O)c2[nH]c(-n3nc(-c4ccccc4)cc3N)nc2n(C)c1=O	> 100	61.9	15	> 100	74.9	–	33.7	> 100	37.1	> 100
CC(=O)N1C(OCc2ccccc2)CCN1c1ccccc1 (centres undefined)	–	> 10	> 10	> 10	> 10	> 10	> 10	> 10	> 10	> 10
CC(C)CC(NC(=O)C(N)CCC(=O)OCc1ccccc1)C(=O)NC(COCc1ccccc1)C(=O)NC(Cc1ccccc1)C(=O)ON1C(=O)CCC1=O (centres undefined) (H-E(OBn)LS(Bn)F-OSu; configuration not given here)	> 100	35.8	64	–	39.8	54.3	–	61.4	72.6	82.1
Cc1cnc2[nH]c(-c3cccc(Cl)c3)cc(=O)c2c1	> 100	16	59.7	–	> 100	> 100	87.3	–	> 100	> 100
O=C1C(CN2CCCC2)CCCC1CN1CCCC1 (centres undefined)	13.7	30.4	3.11	2.27	–	4.27	59.1	3.97	32.4	0.231
O=C1CC(Cl)c2c(Cl)sc(Cl)c21 (centres undefined)	16.4	26.2	3.18	> 100	3.44	9.32	28.8	–	5.09	–
CC1CN=C(N(C)C(=O)Nc2ccc(Cl)c(Cl)c2)S1 (centres undefined)	> 100	29.9	61.8	> 100	22.9	> 100	–	> 100	> 100	> 100
O=c1cc2cc(O)[nH]c(=O)c2c(O)[nH]1	–	> 100	> 100	> 100	> 100	> 100	> 100	> 100	> 100	> 100
O=Cc1cc(O)c(O)c(/C=N/n2c3ccccc3c3ccccc32)c1	43.5	–	36.6	26.7	9.23	34.7	33.2	6.49	–	9.87
O=[N+]([O-])c1cc(Cl)ccc1S(=O)(=O)c1cc(Cl)cc2c1NCCC2	> 100	43.7	> 100	> 100	> 100	–	> 100	> 100	> 100	> 100
Cc1oc2c(C)c3oc(=O)cc(C)c3cc2c1CN	> 100	–	–	> 100	–	> 100	91.2	> 100	–	> 100
C1=C[C@]2(CCC13OCCO3)COc1ccccc12	> 100	> 100	> 100	> 100	> 100	99.5	81.2	> 100	–	> 100
COc1cc(C(CC(OC)OC)=C(C#N)C#N)cc(OC)c1OC	> 100	49.2	> 100	–	50	> 100	13.9	–	> 100	59.1
CCc1cc2c(oc3c4ccccc4ccc23)c(=O)[nH]1	> 10	–	–	> 10	> 10	> 10	> 10	–	> 10	> 10
NC(CNc1ccc(O)cc1)C(=O)O (centres undefined)	> 100	> 100	> 100	> 100	> 100	–	> 100	> 100	–	> 100
CC(=O)C(C(=O)C(C)(C)C)C(=O)C(C)(C)C	–	> 100	> 100	> 100	> 100	–	–	> 100	–	> 100
COc1cc(C)cc(OC)c1/C=C/C(=O)O	> 100	> 100	> 100	> 100	> 100	> 100	> 100	> 100	> 100	–
CC(C)(CN1CCCCC1)C(=O)/C=C/c1c(Cl)cccc1Cl	3.24	2.92	2.78	–	2.34	2.84	9.88	–	1.13	2.73
